Reference: patent US9463256B2, “Pretargeting kit, method and agents used therein” (KONINKLIJKE PHILIPS N.V., priority 2010, dated 2016)

Experiment: Second order kinetic constants of the reactions between CC49-TCO constructs and ^177Lu-28
Assay type: physicochemical
Settings: new TCOs conjugated to CC49, reaction with ^177Lu-28, procedures of Example 5
Experimental: Typically, 1 mg CC49 (5 mg/mL solution in PBS) was modified with 0.6 molar (for kinetic measurements) or 10 molar eq. (for in vivo studies) of TCO-NHS constructs in a total volume of 250 μL PBS. The pH was adjusted to 9 with 1 M sodium carbonate buffer. The reactions were carried out under agitation for 30 min at RT in the dark. Subsequently, the TCO-modified mAbs were extensively washed with PBS using Amicon Ultra-15 centrifugal devices. The numbers of TCO groups per antibody were determined with a tetrazine titration, outlined below.
Tetrazine-DOTA 28 was radiolabeled with carrier-added ^177Lu. mAb (25 μg) modified with ca. 0.6 molar eq. TCO was reacted with 3 molar eq. of ^177Lu-28 (0.5 nM). mAb (25 μg) modified with ca. 10 molar eq. TCO was reacted with 15 molar eq. of ^177Lu-28 (2.5 nM). The reactions were carried out in 50 μL PBS pH 7.4 at 37° C. for 10 min. The reaction mixtures were analyzed by SDS-PAGE and phosphor imager and the reaction yields were determined from the radioactivity in the bands corresponding to the mAb. The counts were quantified with AIDA Image Analyzer software (Raytest).
Tetrazine-DOTA 28 was radiolabeled with carrier-added ^177Lu at a specific activity of 3 MBq/μg. ^177Lu-28 (33 nM) was reacted with increasing concentrations of CC49 modified with 1 eq. of TCO (0.33, 1, and 1.67 μM) in 200 μL PBS, pH 7.4 at 37° C. for 5 min. At selected times (15, 30, 45, 60, 90, 120, 180, and 300 sec) a 20 μL sample was withdrawn and quenched with tetrazine 6 (FIG. 5; described in Rossin et al. Angew Chem Int Ed 2010, 49, 3375) (1.5 μL, 5 mg/mL in DMF). Aliquots of each mixture were analyzed by SDS-PAGE and phosphor imager and the cycloaddition yields were determined from the radioactivity in the bands corresponding to the mAb. The counts were quantified with AIDA Image Analyzer software (Raytest).
The newly synthesized TCO constructs were evaluated with respect to their reactivity towards tetrazine 28. The procedures are described in Example 5.

Compound	Second order kinetic constant [M⁻¹ s⁻¹]
O=C(COC1CC/C=C/CCC1)ON1C(=O)CCC1=O (single isomer, unassigned) [44a, (E-Major)-2,5-dioxopyrrolidin-1-yl 2-(cyclooct-4-en-1-yloxy)acetate]	20640 ± 485
O=C(COC1CC/C=C/CCC1)ON1C(=O)CCC1=O (single isomer, unassigned) [44b, (E-Minor)-2,5-dioxopyrrolidin-1-yl 2-(cyclooct-4-en-1-yloxy)acetate]	134800 ± 997
O=C(ON1C(=O)CCC1=O)C(OC1CC/C=C/CCC1)c1ccccc1 (single isomer, unassigned) [46a, (E-Major)-2,5-dioxopyrrolidin-1-yl 2-(cyclooct-4-en-1-yloxy)-2-phenyl acetate]	28630 ± 1590
O=C(ON1C(=O)CCC1=O)C(OC1CC/C=C/CCC1)c1ccccc1 (single isomer, unassigned) [46b, (E-Minor)-2,5-dioxopyrrolidin-1-yl 2-(cyclooct-4-en-1-yloxy)-2-phenylacetate]	163200 ± 2871
CC(C)(OC1CC/C=C/CCC1)C(=O)ON1C(=O)CCC1=O (single isomer, unassigned) [49a, (E-Major)-2,5-dioxopyrrolidin-1-yl 2-(cyclooct-4-en-1-yloxy)-2-methylpropanoate]	25080 ± 3865
CC(C)(OC1CC/C=C/CCC1)C(=O)ON1C(=O)CCC1=O (single isomer, unassigned) [49b, (E-Minor)-2,5-dioxopyrrolidin-1-yl 2-(cyclooct-4-en-1-yloxy)-2-methylpropanoate]	148500 ± 12040
O=C(ON1C(=O)CCC1=O)c1ccc(OC2CC/C=C/CCC2)cc1 (single isomer, unassigned) [52a, (E-Major)-2,5-dioxopyrrolidin-1-yl 4-(cyclooct-4-en-1-yloxy)benzoate]	20930 ± 3735
